Data published in US20170052170A1, “NOVEL CELL LINES AND METHODS” (priority 2009, published 2017).
Bridge positions count the residues as written; N and C are the ends. Peptide text beside a SMILES is read from it.

Assays:
[1] = test system: human CFTR; assay: Fluorescence membrane potential assay, CHO cell lines stably expressing CFTR; assay type: cell-based; conditions: 15,000 cells/well, 384-well plate; read-out: EC50 (cell fluorescence response)
Experimental: CHO cell lines stably expressing CFTR were maintained under standard cell culture conditions in Ham's F12 medium supplemented with 10% fetal bovine serum and glutamine. On the day before assay, the cells were harvested from stock plates and plated into black clear-bottom 384 well assay plates. The assay plates were maintained in a 37° C. cell culture incubator under 5% CO2 for 22-24 hours. The media was then removed from the assay plates and blue membrane potential dye (Molecular Devices Inc.) diluted in loading buffer (137 mM NaCl, 5 mM KCl, 1.25 mM CaCl2, 25 mM HEPES, 10 mM glucose) was added and allowed to incubate for 1 hour at 37° C. […] The cellular response as a function of changes in cell fluorescence was monitored over time by a fluorescent plate reader (Hamamatsu FDSS). […] Z' value for the produced stable CFTR-expressing cell line was calculated using a high-throughput compatible fluorescence membrane potential assay. The fluorescence membrane potential assay protocol was performed substantially according to the protocol in Example 12. […] Cell responses in the two conditions were monitored using a fluorescent plate reader (Hamamatsu FDSS). Mean and standard deviations in the two conditions were calculated and Z' was computed using the method disclosed in Zhang et al., J Biomol Screen, 4(2): 67-73, (1999). […]

[2] = molecular target: T1, human GC-C (Homo sapiens, UniProt P25092, F281L); conditions: Forte et al. 1999; cited from earlier work
[3] = molecular target: T1, human GC-C; assay: cGMP competitive ELISA / Direct Cyclic GMP Enzyme Immunoassay, GC-C-expressing 293T cell line; assay type: cell-based; design: expressed in transfected cells; host or cells: 293T
Experimental: Populations of cells were tested using functional criteria. The Direct Cyclic GMP Enzyme Immunoassay Kit (Cat. 900-014; AssayDesigns, Inc.) was used according to manufacturer's instructions: (http://www.assaydesigns.com/objects/catalog//product/extras/900-014.pdf). Cells were tested at 4 different densities in 96- or 384-well plates and responses were analyzed. The following conditions were used for the GC-C-expressing cell lines of the invention: • Clone screening: 1:2 and 1:3 splits of confluent 96-well plates 48 hour prior to assay, 30 minutes guanylin treatment. • Dose-response studies: densities of 20,000, 40,000, 60,000, 80,000, 120,000 and 160,000 per well, 30 minutes guanylin treatment (see Example 8). • Z′ studies: densities of 160,000 and 200,000 per well were used, 30 minutes guanylin treatment (see Example 9).
A competitive ELISA for detection of cGMP was used to characterize native GC-C function in the produced GC-C-expressing cell line. Cells expressing GC-C were maintained under standard cell culture conditions in Dulbecco's Modified Eagles medium (DMEM) supplemented with 10% fetal bovine serum, glutamine and HEPES and grown in T175 cm flasks. For the ELISA, the cells were plated into coated 96-well plates (poly-D-lysine).
Cells were washed twice with serum-free medium and incubated with 1 mM IBMX for 30 minutes. Desired activators (i.e., guanylin, 0.001-40 μM) were then added to the cells and incubated for 30-40 minutes. Supernatant was removed, and the cells were washed with TBS buffer. […]. This was followed by lysis with 0.1N HCl and a freeze/thaw cycle at −20° C./room temperature. […]
All of the following steps were performed at room temperature, unless otherwise indicated. […] The absorbance was then read at 405 nm on a SAFIRE^2™ plate reader (Tecan). […]
Z′ for the produced GC-C-expressing cell line was calculated using a direct competitive ELISA assay. […] Absorbance (corresponding to cGMP levels) in the two conditions was monitored using a SAFIRE^2™ plate reader (Tecan). […]

[4] = test system: human bitter receptor-Gα15 cell lines; assay: isoproterenol dose response (intracellular free calcium) in human bitter receptor-Gα15 cell lines; assay type: cell-based; conditions: change in intracellular free calcium, read-out: EC50 in a dose response curve conducted with the cell or cell line
Excerpt: In some embodiments, the bitter receptor is a functional bitter receptor. In some embodiments, the cell or cell line has a change in the concentration of intracellular free calcium when contacted with isoproterenol. […] In some embodiments, the cell or cell line has a signal to noise ratio of greater than 1.
According to yet another aspect of the present invention, a method of identifying a modulator of a bitter receptor function comprises: a) exposing a cell or cell line that stably expresses a bitter receptor to a test compound; and b) detecting a change in a function of the bitter receptor. In some embodiments, the detecting utilizes an assay that measures intracellular free calcium. In some embodiments, the intracellular free calcium is measured using one or more calcium-sensitive fluorescent dyes, a fluorescence microscope, and optionally a fluorescent plate reader, wherein at least one fluorescent dye binds free calcium. In some other embodiments, the intracellular free calcium is monitored by real-time imaging using one or more calcium-sensitive fluorescent dyes, wherein at least one fluorescent dye binds free calcium.
FIG. 16 is a graph showing dose response curves of relative responses to isoproterenol in 25 human bitter receptor-Gα15 cell lines.

T1 sequence (P25092 24-1073 F281L): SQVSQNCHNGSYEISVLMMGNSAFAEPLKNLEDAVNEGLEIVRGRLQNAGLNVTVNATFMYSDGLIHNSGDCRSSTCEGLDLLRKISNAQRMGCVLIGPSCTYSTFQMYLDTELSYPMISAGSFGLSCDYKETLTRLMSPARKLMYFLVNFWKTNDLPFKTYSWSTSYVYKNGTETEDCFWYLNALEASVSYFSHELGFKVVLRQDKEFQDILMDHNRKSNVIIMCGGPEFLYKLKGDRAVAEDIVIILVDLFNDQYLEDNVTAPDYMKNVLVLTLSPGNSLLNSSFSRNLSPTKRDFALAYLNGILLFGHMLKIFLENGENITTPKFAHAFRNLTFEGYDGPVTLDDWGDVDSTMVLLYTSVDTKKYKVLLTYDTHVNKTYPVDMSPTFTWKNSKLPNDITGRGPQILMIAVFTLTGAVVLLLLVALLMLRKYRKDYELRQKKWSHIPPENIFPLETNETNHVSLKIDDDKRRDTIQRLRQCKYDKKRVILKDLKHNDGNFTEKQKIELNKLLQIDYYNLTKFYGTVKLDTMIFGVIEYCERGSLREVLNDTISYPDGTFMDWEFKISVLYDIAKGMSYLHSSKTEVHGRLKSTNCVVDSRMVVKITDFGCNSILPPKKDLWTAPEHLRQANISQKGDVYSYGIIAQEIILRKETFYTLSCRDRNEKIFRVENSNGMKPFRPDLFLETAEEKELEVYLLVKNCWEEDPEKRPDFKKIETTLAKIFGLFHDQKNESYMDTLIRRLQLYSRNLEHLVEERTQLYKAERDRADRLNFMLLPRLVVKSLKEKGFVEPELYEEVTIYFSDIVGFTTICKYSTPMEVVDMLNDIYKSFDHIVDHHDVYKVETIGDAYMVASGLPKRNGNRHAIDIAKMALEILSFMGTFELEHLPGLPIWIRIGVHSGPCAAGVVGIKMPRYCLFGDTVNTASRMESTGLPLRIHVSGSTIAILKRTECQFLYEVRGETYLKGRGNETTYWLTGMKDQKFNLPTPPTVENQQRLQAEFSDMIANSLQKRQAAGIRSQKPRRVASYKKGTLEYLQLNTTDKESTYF

C=C[C@@]1(C)CC(=O)[C@]2(O)[C@@]3(C)[C@@H](O)CCC(C)(C)[C@@H]3[C@H](O)[C@H](OC(C)=O)[C@@]2(C)O1 [forskolin]
EC50 [1]: 256 nM

CC[C@H](C)[C@@H]1NC(=O)[C@H](CCC(=O)O)NC(=O)[C@@H](NC(=O)[C@@H](NC(=O)CNC(=O)[C@@H]2CCCN2)[C@@H](C)O)CSSC[C@@H]2NC(=O)[C@H](C)NC(=O)[C@H](C)NC(=O)[C@H](Cc3ccc(O)cc3)NC(=O)[C@H](C)NC(=O)[C@H](CSSC[C@@H](C(=O)O)NC(=O)CNC(=O)[C@H]([C@@H](C)O)NC2=O)NC1=O [guanylin] (H-PGTCEICAYAACTGC-OH; disulfide 4-12, 7-15 (inferred); N-terminus and C-terminus assumed)
level of cGMP previously reported in other cell lines [2]: 3.5 pmol/mL | absorbance in cGMP ELISA (reduction corresponds to increased cGMP levels) ([3]; 100 nM guanylin): Reduction in absorbance | EC50 ([3]; 30 minutes treatment, 96-well plate, read-out: EC50 value (cGMP response)): 1.1 nM | level of cGMP ([3]; produced GC-C-expressing cell line, low concentrations of guanylin): 6 pmol/mL

CC(C)NCC(O)c1ccc(O)c(O)c1 (stereo not drawn) [isoproterenol]
EC50 [4]: 1 to 20 nM
